Data as given in ChEMBL document CHEMBL2202954, “The effect of PLC-γ2 inhibitors on the growth of human tumour cells” (2012).

Assays:
Format in all cases: functional
SK-OV-3 = experiment: Cytotoxicity against human SKOV3 cells assessed as cellular growth at 10 uM by SRB assay
LOX IMVI = experiment: Cytotoxicity against human LOXIMVI cells assessed as cellular growth at 10 uM by SRB assay
SNB-19 = experiment: Cytotoxicity against human SNB19 cells assessed as cellular growth at 10 uM by SRB assay
DU-145 = experiment: Cytotoxicity against human DU145 cells assessed as cellular growth at 10 uM by SRB assay
MDA-MB-435 = experiment: Cytotoxicity against human MDA-MB-435 cells assessed as cellular growth at 10 uM by SRB assay
MOLT-4 = experiment: Cytotoxicity against human MOLT4 cells assessed as cellular growth at 10 uM by SRB assay
NCI-H23 = experiment: Cytotoxicity against human NCI-H23 cells assessed as cellular growth at 10 uM by SRB assay
CCRF-CEM = experiment: Cytotoxicity against human CCRF-CEM cells assessed as cellular growth at 10 uM by SRB assay
HCC 2998 = experiment: Cytotoxicity against human HCC2998 cells assessed as cellular growth at 10 uM by SRB assay
EKVX = experiment: Cytotoxicity against human EKVX cells assessed as cellular growth at 10 uM by SRB assay
BT-549 = experiment: Cytotoxicity against human BT549 cells assessed as cellular growth at 10 uM by SRB assay
SK-MEL-5 = experiment: Cytotoxicity against human SK-MEL-5 cells assessed as cellular growth at 10 uM by SRB assay
NCI-H522 = experiment: Cytotoxicity against human NCI-H522 cells assessed as cellular growth at 10 uM by SRB assay
786-0 = experiment: Cytotoxicity against human 786-0 cells assessed as cellular growth at 10 uM by SRB assay
HCT-15 = experiment: Cytotoxicity against human HCT15 cells assessed as cellular growth at 10 uM by SRB assay
[1] = Cytotoxicity against human NCI-ADR-RES cells assessed as cellular growth at 10 uM by SRB assay
OVCAR-5 = experiment: Cytotoxicity against human OVCAR5 cells assessed as cellular growth at 10 uM by SRB assay
SK-MEL-28 = experiment: Cytotoxicity against human SK-MEL-28 cells assessed as cellular growth at 10 uM by SRB assay
M14 = experiment: Cytotoxicity against human M14 cells assessed as cellular growth at 10 uM by SRB assay
SW-620 = experiment: Cytotoxicity against human SW620 cells assessed as cellular growth at 10 uM by SRB assay
Malme-3M = experiment: Cytotoxicity against human MALME-3M cells assessed as cellular growth at 10 uM by SRB assay
MCF7 = experiment: Cytotoxicity against human MCF7 cells assessed as cellular growth at 10 uM by SRB assay
OVCAR-8 = experiment: Cytotoxicity against human OVCAR8 cells assessed as cellular growth at 10 uM by SRB assay
UACC-62 = experiment: Cytotoxicity against human UACC62 cells assessed as cellular growth at 10 uM by SRB assay
OVCAR-3 = experiment: Cytotoxicity against human OVCAR3 cells assessed as cellular growth at 10 uM by SRB assay
UO-31 = experiment: Cytotoxicity against human UO31 cells assessed as cellular growth at 10 uM by SRB assay
Hs-578T = experiment: Cytotoxicity against human Hs578T cells assessed as cellular growth at 10 uM by SRB assay
CAKI-1 = experiment: Cytotoxicity against human Caki1 cells assessed as cellular growth at 10 uM by SRB assay
NCI-H322M = experiment: Cytotoxicity against human NCI-H322M cells assessed as cellular growth at 10 uM by SRB assay
MDA-MB-231 = experiment: Cytotoxicity against human MDA-MB-231 cells assessed as cellular growth at 10 uM by SRB assay
SF-539 = experiment: Cytotoxicity against human SF539 cells assessed as cellular growth at 10 uM by SRB assay
NCI-H226 = experiment: Cytotoxicity against human NCI-H226 cells assessed as cellular growth at 10 uM by SRB assay
HL-60(TB) = experiment: Cytotoxicity against human HL-60(TB) cells assessed as cellular growth at 10 uM by SRB assay
A549 = experiment: Cytotoxicity against human A549 cells assessed as cellular growth at 10 uM by SRB assay
ACHN = experiment: Cytotoxicity against human ACHN cells assessed as cellular growth at 10 uM by SRB assay
K562 = experiment: Cytotoxicity against human K562 cells assessed as cellular growth at 10 uM by SRB assay
UACC-257 = experiment: Cytotoxicity against human UACC257 cells assessed as cellular growth at 10 uM by SRB assay
COLO 205 = experiment: Cytotoxicity against human COLO205 cells assessed as cellular growth at 10 uM by SRB assay
SN12C = experiment: Cytotoxicity against human SN12C cells assessed as cellular growth at 10 uM by SRB assay
SF-268 = experiment: Cytotoxicity against human SF268 cells assessed as cellular growth at 10 uM by SRB assay
HCT-116 = experiment: Cytotoxicity against human HCT116 cells assessed as cellular growth at 10 uM by SRB assay
MDA-MB-468 = experiment: Cytotoxicity against human MDA-MB-468 cells assessed as cellular growth at 10 uM by SRB assay
OVCAR-4 = experiment: Cytotoxicity against human OVCAR4 cells assessed as cellular growth at 10 uM by SRB assay
HT-29 = experiment: Cytotoxicity against human HT-29 cells assessed as cellular growth at 10 uM by SRB assay
HOP-62 = experiment: Cytotoxicity against human HOP62 cells assessed as cellular growth at 10 uM by SRB assay
RPMI-8226 = experiment: Cytotoxicity against human RPMI8226 cells assessed as cellular growth at 10 uM by SRB assay
RXF 393 = experiment: Cytotoxicity against human RXF393 cells assessed as cellular growth at 10 uM by SRB assay
TK-10 = experiment: Cytotoxicity against human TK10 cells assessed as cellular growth at 10 uM by SRB assay
KM12 = experiment: Cytotoxicity against human KM12 cells assessed as cellular growth at 10 uM by SRB assay
SK-MEL-2 = experiment: Cytotoxicity against human SK-MEL-2 cells assessed as cellular growth at 10 uM by SRB assay
PC-3 = experiment: Cytotoxicity against human PC3 cells assessed as cellular growth at 10 uM by SRB assay
SR = experiment: Cytotoxicity against human SR cells assessed as cellular growth at 10 uM by SRB assay
U-251 = experiment: Cytotoxicity against human U251 cells assessed as cellular growth at 10 uM by SRB assay
SNB-75 = experiment: Cytotoxicity against human SNB75 cells assessed as cellular growth at 10 uM by SRB assay
NCI-H460 = experiment: Cytotoxicity against human NCI-H460 cells assessed as cellular growth at 10 uM by SRB assay
T47D = experiment: Cytotoxicity against human T47D cells assessed as cellular growth at 10 uM by SRB assay
HOP-92 = experiment: Cytotoxicity against human HOP92 cells assessed as cellular growth at 10 uM by SRB assay
A498 = experiment: Cytotoxicity against human A498 cells assessed as cellular growth at 10 uM by SRB assay
SF-295 = experiment: Cytotoxicity against human SF295 cells assessed as cellular growth at 10 uM by SRB assay

Cc1ccc(C2=N/C(=C\c3ccccc3)C(=O)O2)cc1
Activity (SK-OV-3): 109.52%
Activity (LOX IMVI): 105.76%
Activity (SNB-19): 103.53%
Activity (DU-145): 106.2%
Activity (MDA-MB-435): 102.12%
Activity (MOLT-4): 91.17%
Activity (NCI-H23): 101.26%
Activity (CCRF-CEM): 94.95%
Activity (HCC 2998): 99.84%
Activity (EKVX): 90.26%
Activity (BT-549): 103.91%
Activity (SK-MEL-5): 105.32%
Activity (NCI-H522): 95.94%
Activity (786-0): 103.22%
Activity (HCT-15): 100.23%
Activity [1]: 107.34%
Activity (OVCAR-5): 95.31%
Activity (SK-MEL-28): 105.81%
Activity (M14): 108.05%
Activity (SW-620): 102.61%
Activity (Malme-3M): 105.62%
Activity (MCF7): 103.73%
Activity (OVCAR-8): 102.69%
Activity (UACC-62): 101.68%
Activity (OVCAR-3): 105.55%
Activity (UO-31): 102.89%
Activity (Hs-578T): 96.01%
Activity (CAKI-1): 101.22%
Activity (NCI-H322M): 114.1%
Activity (MDA-MB-231): 105.18%
Activity (SF-539): 103.23%
Activity (NCI-H226): 102%
Activity (HL-60(TB)): 95.82%
Activity (A549): 107.01%
Activity (ACHN): 104.91%
Activity (K562): 106.22%
Activity (UACC-257): 101.52%
Activity (COLO 205): 122.06%
Activity (SN12C): 98.61%
Activity (SF-268): 98.83%
Activity (HCT-116): 114.29%
Activity (MDA-MB-468): 99.59%
Activity (OVCAR-4): 108.84%
Activity (HT-29): 107.8%
Activity (HOP-62): 108.81%
Activity (RPMI-8226): 102.87%
Activity (RXF 393): 130.71%
Activity (TK-10): 112.19%
Activity (KM12): 108.78%
Activity (SK-MEL-2): 108.55%
Activity (PC-3): 104.18%
Activity (SR): 88.58%
Activity (U-251): 107.92%
Activity (SNB-75): 90.22%
Activity (NCI-H460): 109.3%
Activity (T47D): 105.06%

O=S(=O)(Oc1ccc(-c2cnc3ccccc3n2)cc1)c1ccc2ccccc2c1
Activity (SK-OV-3): 102.69%
Activity (LOX IMVI): 115.1%
Activity (SNB-19): 99.88%
Activity (DU-145): 104.01%
Activity (MDA-MB-435): 95.36%
Activity (MOLT-4): 89.91%
Activity (NCI-H23): 100.37%
Activity (CCRF-CEM): 90.35%
Activity (HCC 2998): 107.48%
Activity (EKVX): 94.26%
Activity (BT-549): 122.04%
Activity (SK-MEL-5): 84.35%
Activity (NCI-H522): 86.38%
Activity (786-0): 96.4%
Activity (HCT-15): 115.04%
Activity [1]: 104.07%
Activity (HOP-92): 101.74%
Activity (OVCAR-5): 109.35%
Activity (SK-MEL-28): 112.84%
Activity (M14): 100.37%
Activity (SW-620): 100.52%
Activity (MCF7): 103.49%
Activity (OVCAR-8): 110.71%
Activity (UACC-62): 82.67%
Activity (OVCAR-3): 107.67%
Activity (UO-31): 118.94%
Activity (Hs-578T): 105.04%
Activity (CAKI-1): 105.66%
Activity (NCI-H322M): 137.19%
Activity (MDA-MB-231): 103.12%
Activity (SF-539): 119.65%
Activity (NCI-H226): 98.79%
Activity (HL-60(TB)): 87.7%
Activity (A549): 102.43%
Activity (ACHN): 118.15%
Activity (K562): 90.95%
Activity (UACC-257): 114.11%
Activity (COLO 205): 121.42%
Activity (SN12C): 92.04%
Activity (SF-268): 104.06%
Activity (HCT-116): 94.69%
Activity (A498): 85.21%
Activity (SF-295): 102.68%
Activity (MDA-MB-468): 85.1%
Activity (HT-29): 82.27%
Activity (HOP-62): 104.1%
Activity (RPMI-8226): 89.09%
Activity (RXF 393): 110%
Activity (TK-10): 94.33%
Activity (KM12): 101.08%
Activity (SK-MEL-2): 107.17%
Activity (PC-3): 87.31%
Activity (SR): 93.61%
Activity (U-251): 104.05%
Activity (SNB-75): 119.77%
Activity (NCI-H460): 96.28%
Activity (T47D): 91.09%
